Measurements: patent US8471009B2, “(EN) 2-alkylamino-3-arylsulfonyl-cycloalcano [e OR d] pyrazolo [1,5-A]pyrimidines / antagonists of serotonin 5-HT6 receptors, methods for the production and the use thereof” (priority 2008, dated 2013)

Tests used:
[1] = target: T1, recombinant human 5-HT6 receptors (Homo sapiens, UniProt P50406); test: Competitive radioligand binding ([3H] Lysergic acid diethylamide) to membranes of HeLa cells expressing recombinant human 5-HT6 receptors; conditions: 1.5 nM [3H] Lysergic acid diethylamide, 120 min, 37° C., HeLa cell membranes; for IC50: read-out: IC50 of serotonin 5-HT6 receptor inhibition in the setting of competitive binding; for Ki: read-out: Ki of serotonin 5-HT6 receptor inhibition in the setting of competitive binding
T1 construct: expressed in transfected cells; host or cells: HeLa (membrane preparation)
Experimental: Activity determination of serotonin 5-HT6 receptor antagonists of the general formula 1 in the setting of competitive binding to serotonin 5-HT6 receptors.
Screening of disclosed compounds for their potential ability to interact with serotonin 5-HT6 receptors was carried out by method of radioligand binding. For this purpose membrane species were prepared from expressing recombinant human 5-HT6 receptors HeLa cells by means of their homogenization in glass homogenizer with subsequent separation of plasmatic membranes from cell nucli, mitochondria's and cell wreckages by differential centrifugation. […] Mol Pharmacol. 43:320-327, 1993]. In the preferred embodiment membrane preparations were incubated with radioligand (1.5 nM [^3H] Lysergic acid diethylamide) without and in the presence of investigated compounds for 120 min at 37° C. in medium consisting of […], pH 7.4, 150 mM NaCl, 2 mM Ascorbic Acid, 0.001% BSA. After incubation the samples were filtered in vacuo on glass-microfiber filters G/F (Millipor, USA), filters were washed three times with cold solution of medium and radioactivity was measured by scintillation counter MicroBeta 340 (PerkinElmer, USA). Nonspecific binding which made up 30% of overall binding was determined by incubation of membrane preparations with radioligand in the presence of 5 μM Serotonin (5-HT). Methiothepin was used as positive control. Binding of tested compounds with the receptor was determined by their ability to displace the radioligand and expressed in percent of displacement. The percent of displacement was calculated according to the following equation:
[formula] wherein: TA—was overall radioactivity in the presence of radioligand only, CA—was radioactivity in the presence of radioligand and tested compound and NA—was radioactivity in the presence of radioligand and Serotonin (5 μM).
Table 4 presents the test results for some serotonin 5-HT6 receptor antagonists of general formulas 1 and 2 in the setting of competitive binding to serotonin 5-HT6 receptors, testifying their high activity towards serotonin 5-HT6 receptors.

serotonin 5-HT6 receptor = target: T2, serotonin 5-HT6 receptor (Homo sapiens, UniProt P50406); test: Functional assay: antagonism of serotonin-induced intracellular cAMP (LANCE cAMP) in HEK 293 cells expressing 5-HT6 receptor; type: cell-based; conditions: HEK 293 cells with expressed 5-HT6 receptor, read-out: IC50 of serotonin 5-HT6 receptor inhibition in the setting of functional assay
T2 construct: expressed in transfected cells; host or cells: HEK 293
Experimental: Determination of antagonistic activity of compounds of general formula 1 towards 5-HT6 receptors. Compounds of general formula 1 were tested for their ability to prevent 5-HT6 receptors activation by serotonin. HEK 293 cells (cells of human embryo's kidney) with artificially expressed 5-HT6 receptor, activation of which by serotonin leads to increasing the concentration of intracellular cAMP were used. The content of intracellular cAMP was determined using reagent kit LANCE cAMP (PerkinElmer) according to the method described by the manufacturer of the kit [http://las.perkinelmer.com/content/Manuals/MAN_LANCEcAMP384KitUser.pdf]. Effectiveness of compounds was estimated by their ability to reduce the content of intracellular cAMP induced by serotonin. Table 3 presents ICso values of serotonin 5-HT6 receptor inhibition by antagonists of general formula 1 and 2 in the setting of functional assay. The data given testify their high antagonistic activity.

[2] = system: mice behavior in elevated plus maze; test: Mice Behavior in the Elevated Plus Maze (anxiolytic action); type: in vivo; conditions: five minutes
Source text: Anxiolytic (tranquilizing) action of compounds of general formulas 1 and 2 in the test “Mice Behavior in the Elevated Plus Maze”. The length of each arm of the maze is 30 cm, width is 5 cm, and height of walls is 15 cm. Two opposite arms are closed from both sides and end faces by transparent walls, the other two arms are lit and opened. A mouse was placed in the center of maze, and for the next five minutes the number of entries into opened and closed arms and the time spent in each type of arms was registered. […] The animals usually avoid opened arms (the preference index is between 0.2 and 0.3). Compounds with tranquilizing action increase this index up to 0.5-0.6 or even more and reduce the number of defecations without changing the overall motion activity of the mice (the total number of entries to the arms).

[3] = system: memory disturbed by Scopolamine; test: Passive Avoidance of mice in the Shuttle Chamber, memory disturbed by Scopolamine; type: in vivo; conditions: aged male BALB/c mice; Scopolamine 0.3 mg/kg, injected 30 minutes before training; retest in 22-24 hours
Experimental: A shuttle chamber (Ugo Basile, Italy) consisted of two sections was used. The walls of one section were opaque while the other section had transparent cover. The sections were connected through a hole which could be overlapped by vertical door. The floor was made of transverse metal bars on which DC current impulses could be fed. Experiments were carried out in aged male mice of BALB/c line weighing 20-24 grams.
On the first day of testing 30 minutes before training mice were injected intraintestinally with physiological solutions of Scopolamine (0.3 mg/kg) or Scopolamine in combination with active ingredient 1.1(1). Each group consisted of at least 8 animals. Animals were placed in light section, and latent period of the first entry into dark chamber was registered. Then vertical door was closed and the animal was punished by 0.6 mA DC current for 3 seconds. After that the animal was taken back to its homecage. In 22-24 hours the same animal was placed again in light section of the shuttle chamber and latent period of its first entry into dark section, the total time of its stay in light section and the number of entries into dark section, was registered. Each monitoring lasted for 5 minutes.
Testing was carried out during the day time in isolated laboratory using white noise at level of about 70 decibel above human hearing threshold. […]

[4] = system: memory disturbed by MK-801; test: Passive Avoidance of mice in the Shuttle Chamber, memory disturbed by MK-801; type: in vivo; conditions: MK-801 0.1 mg/kg, injected 30 minutes before training
Experimental: The testing was carried out as in example 7. On the first day of testing 30 minutes before training the mice were injected intraintestinally with physiological solution of MK-801 (0.1 mg/kg). Concurrently, physiological solution of MK-801 in combination with active ingredient 1.1(1) was injected intraintestinally to independent groups of mice before training.

T1 sequence (P50406 whole entry): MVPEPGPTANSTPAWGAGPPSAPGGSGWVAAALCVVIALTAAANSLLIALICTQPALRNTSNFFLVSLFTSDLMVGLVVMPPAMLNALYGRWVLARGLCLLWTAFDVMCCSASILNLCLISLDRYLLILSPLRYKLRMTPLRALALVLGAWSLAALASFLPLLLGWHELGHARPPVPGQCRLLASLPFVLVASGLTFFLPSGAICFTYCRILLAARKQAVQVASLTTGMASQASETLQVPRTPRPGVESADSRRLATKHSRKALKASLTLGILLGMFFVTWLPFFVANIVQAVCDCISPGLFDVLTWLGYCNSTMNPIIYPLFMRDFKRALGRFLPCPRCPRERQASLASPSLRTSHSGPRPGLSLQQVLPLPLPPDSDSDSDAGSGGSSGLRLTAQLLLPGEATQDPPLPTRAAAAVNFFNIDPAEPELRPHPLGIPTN
T2 sequence (P50406 whole entry): as above

SMILES | IC50 [1] [nM] | Ki [1] [nM] | IC50 (serotonin 5-HT6 receptor) [nM] | Anxiolytic (tranquilizing) action [2] | Nootropic action (enhancement of memory disturbed by Scopolamine) [3] | Nootropic action (enhancement of memory disturbed by MK-801) [4]
CNc1nn2c(C)c3c(nc2c1S(=O)(=O)c1ccccc1)CCCC3 [2(2)] | 0.551 | 0.256 | 15.5 |  |  | 
CNc1nn2c3c(cnc2c1S(=O)(=O)c1ccccc1)CCCC3 [1.2(1), 2-methylamino-3-(phenylsulfonyl)-6,7,8,9-tetrahydrocyclohexa[e]pyrazolo[1,5-a]pyrimidine] | 0.241 | 0.112 | 4.4 |  |  | 
CNc1nn2c3c(c(C)nc2c1S(=O)(=O)c1ccccc1)CCC3 [1.1(3), 5-methyl-2-methylamino-3-(phenylsulfonyl)-7,8-dihydro-6H-cyclopenta[e]pyrazolo[1,5-a]pyrimidine] | 0.436 | 0.202 | 7 |  |  | 

Now from value to molecule, other results behind:

IC50 [1] [nM] | Ki [1] [nM] | IC50 (serotonin 5-HT6 receptor) [nM] | SMILES | Anxiolytic (tranquilizing) action [2] | Nootropic action (enhancement of memory disturbed by Scopolamine) [3] | Nootropic action (enhancement of memory disturbed by MK-801) [4]
1.07 | 0.499 | 7.5 | CNc1nn2cc3c(nc2c1S(=O)(=O)c1ccccc1)CCCC3 [2(1)] |  |  | 
1.05 | 0.49 |  | CNc1nn2c3c(c(C)nc2c1S(=O)(=O)c1ccccc1)CCCC3 [1.2(3), 5-methyl-2-methylamino-(3-phenylsulfonyl)-6,7,8,9-tetrahydrocyclohexa[e]pyrazolo[1,5-a]pyrimidine] |  |  | 
0.157 | 0.073 | 4.8 | CNc1nn2c3c(cnc2c1S(=O)(=O)c1ccccc1)CCC3 [1.1(1), 2-methylamino-3-(phenylsulfonyl)-7,8-dihydro-6H-cyclopenta[e]pyrazolo[1,5-a]pyrimidine] | anxiolytic (tranquilizing) action which is comparable with the activity of Buspirone and Lorasepam | nootropic action | nootropic effect
